Paper PMC10264579 (Frontiers in Pharmacology, 2023)

Assay: In vitro skin permeation study in Franz diffusion cells
Assay type: in vitro ADME, human
Conditions: all formulations
Excerpt: The steady-state flux was estimated from the slope of the linear portion of the plot of cumulative mass in the acceptor phase over time.

CC(C(=O)O)c1cccc(C(=O)c2ccccc2)c1 (stereo not shown) [KET, ketoprofen]
lag time, KET: below 0
